*1 amine or outer side, *2 acyl side, *3 side chain or, on linkers, in order; H or OH if unused. Where a SMILES comes first, the peptide text is derived from it. Bridges are numbered along the chain shown (N, C = ends). Roman numbers before positions name the chains, in order. [ ]: non-standard residue; d: D form. Actinocin(9to1) = Cc1c2oc3c(C)ccc(C(=O)[*:1])c3nc-2c(C(=O)[*:2])c(N)c1=O; NMeV = CN[C@H](C(=O)O)C(C)C; Sar = CNCC(=O)O
Legend:
Assay type in all cases: cell-based, human
[1] = tested on: GSH content of HepG2 cells; test: GSH-Glo glutathione assay (oxidative stress); conditions: 24 h
Procedure: To assess oxidative stress in cells in response to compound treatment, the GSH-Glo™ Glutathione Assay from Promega was used according to manufacturer’s instructions (V6912). HepG2 cells cultivated in standard medium containing FBS, Advanced DMEM/F12 or TCM® Serum Replacement were seeded in 384-well plates, incubated for 24 h, and subsequently treated with the MIP-DILI reference compounds, negative controls, or internal controls in a three-fold dilution series performed in triplicates using the Tecan 300e Dispenser ([Dragovic et al., 2016]). Treatment was performed for 24 h.
Assay reagents and plates were first equilibrated to room temperature. GSH-Glo™ Reagent 1x was obtained by diluting Luciferin-NT substrate and Glutathione S-Transferase 1:100 in GSH-Glo™ Reaction Buffer. Luciferin Detection reagent was dissolved in Reconstitution Buffer with Esterase.
The medium was aspirated, GSH-Glo™ Reagent 1x was added to the cells and plates were shaken for 2 min and subsequently incubated for 30 min at room temperature protected from light. Afterwards, reconstituted Luciferin Detection Reagent was added, and cells were again shaken for 2 min before incubation for 15 min at room temperature in the dark. Luminescence was measured using the Varioskan Plate Reader from Thermo Fisher.

[2] = tested on: HSP70 (stress response marker); test: Cellular fingerprint assay (Luminex): HSP70; conditions: 24 h
Procedure: (§1) To measure intracellular drug response markers, HepG2 cells cultivated in standard medium containing FBS, Advanced DMEM/F12 or TCM® Serum Replacement were seeded in 384-well plates and incubated for 24 h. After incubation, cells were treated with selected MIP-DILI compounds or negative controls in a three-fold dilution series performed in triplicates using the Tecan 300e Dispenser ([Dragovic et al., 2016]). Additionally, cells were treated with assay specific control substances (see Supplementary Table S2). Treatment was performed for 24 h. After treatment, media was carefully aspirated und cells were lysed by adding 40 µL lysis buffer (Supplementary Table S3) to each well. The plates were incubated for 30 min at 4°C and either stored at −80°C or used immediately.
(§2) Intracellular drug response markers were assessed using the Luminex technology. Color-coded beads from NMI specific for one analyte each were used to qualify and quantify p-serin 10 of Histon H3 (cell division marker), LC3B (autophagy marker), PARP (cell death/apoptosis marker), HSP70 (stress response marker), p-serin 2/5 of RNA-Polymerase II (protein transcription marker), p-serin 422 of EIF4B (protein synthesis marker) and HIF1-alpha (oxidative stress marker).
(§3) For hybridization, 25 μL cell lysate of each sample was transferred to a fresh 384-well plate. 25 μL prepared bead mix and 25 µL assay buffer were added and the plate was sealed. Plates were incubated for 16–20 h at 4°C and 600 rpm. The TS Pro thermal plate shaker from CellMedia was used for all incubation steps.
(§4) After incubation the plates were washed and successively incubated with 15 µL detection antibody (1 h, RT, 650 rpm) and 15 µL streptavidin, R-phycoerythrin conjugate (SAPE; 45 min, RT, 650 rpm). After each step, the plates were washed three times with wash buffer. Before measurement, 90 µL assay buffer was added to each well and the plates were incubated for 10 min at RT and 700 rpm. Measurement was performed using the Luminex™ FlexMAP 3D from ThermoFisher.

[3] = tested on: HIF1-alpha (oxidative stress marker); test: Cellular fingerprint assay (Luminex): HIF-1-alpha; conditions: 24 h
Procedure: as §1, §2, §3, §4

[4] = tested on: PARP (cell death/apoptosis marker); test: Cellular fingerprint assay (Luminex): PARP; conditions: 24 h
Procedure: as §1, §2, §3, §4

[5] = tested on: p-serin 2/5 of RNA-Polymerase II; test: Cellular fingerprint assay (Luminex): RNA Pol II; conditions: 24 h
Procedure: as §1, §2, §3, §4

HepG2 cells [6] = test: Cellular fingerprint assay: overall marker response / cell death; conditions: 24 h
Procedure: as §1, §2
(§5) For hybridization, 25 μL cell lysate of each sample was transferred to a fresh 384-well plate. […]

p-serin 422 of EIF4B = test: Cellular fingerprint assay (Luminex): EIF4B; conditions: 24 h; all culture conditions (amiodarone: highest concentration)
Procedure: as §1, §2, §5

HepG2 cells [7] = test: Mitochondrial toxicity assay (Glucose/Galactose assay); conditions: HepG2 cultured in Advanced DMEM/F12; 2 h treatment
Procedure: To assess mitochondrial toxicity, the Glucose/Galactose Assay was used. HepG2 cells cultivated in standard medium containing FBS, Advanced DMEM/F12 or TCM® Serum Replacement were seeded in 384-well plates and incubated for 48 h. Cells were washed once, and subsequently switched to DMEM (ThermoFisher, 11966025) supplemented with sodium pyruvate, HEPES and either 25 mM D-glucose or 10 mM D-galactose without FBS to avoid residual glucose. Cells were pre-incubated for 4 h before treatment with the MIP-DILI reference compounds, negative controls or internal controls ([Dragovic et al., 2016]). Treatment was performed in a three-fold dilution series in triplicates using the Tecan 300e Dispenser. Cells were treated for 2 h, and the read-out was performed by measuring cell viability using the CellTiter-Glo® reagent as described previously. IC50 values were obtained from dose response curves in GraphPad Prism using a log(inhibitor) vs. response model (variable slope, four parameters, bottom constraint = 0). Mitochondrial toxicity was assessed by calculating the IC50Glc/IC50Gal ratio and the threshold for risk for mitochondrial toxicity was set at >2.

LC3B (autophagy marker) = test: Cellular fingerprint assay (Luminex): LC3B; conditions: 24 h
Procedure: as §1, §2, §5

[8] = comparable results for all culture conditions
[9] = all culture conditions (amiodarone: highest concentration)
[10] = highest concentration, across all media

In the case of `O=C1CC2(CCCC2)CC(=O)N1CCCCN1CCN(c2ncccn2)CC1` [Buspirone], the “changes in GSH” value [1, 8] is reported as “viability dependent changes in GSH”.

In the case of `COC1=C2C[C@@H](C)C[C@H](OC)[C@H](O)[C@@H](C)/C=C(\C)[C@H](OC(N)=O)[C@@H](OC)/C=C\C=C(/C)C(=O)NC(=CC1=O)C2=O` [geldanamycin, Geldanamycin], the “fold change (response, Figure 7B)” value ([2]; Advanced DMEM/F12) is reported as 20.6, the “fold change (response, Figure 7B)” value ([2]; TCM) is reported as 8.7 and the “fold change (response, Figure 7B)” value ([2]; standard medium) is reported as 7.4.

For `CC(=O)N(O)CCCCCNC(=O)CCC(=O)N(O)CCCCCNC(=O)CCC(=O)N(O)CCCCCN` [deferoxamine, Deferoxamin Mesylat], the HIF-1-alpha levels ([3]; Advanced DMEM/F12, treated vs. untreated cells) was “no significant increase in HIF-1-alpha levels”, the HIF-1-alpha levels ([3]; TCM) was “elevated HIF-1-alpha levels” and the HIF-1-alpha levels ([3]; standard medium) was “elevated HIF-1-alpha levels”. For the same compound, the PARP level ([4]; serum-free media) was “not observed” and the PARP level ([4]; standard medium) was “increased PARP level”.

For `CCc1nn(CCCN2CCN(c3cccc(Cl)c3)CC2)c(=O)n1CCOc1ccccc1` [Nefazodone], the “changes in GSH” value [1, 8] was “viability dependent changes in GSH”.

In the case of `CCCCS(=N)(=O)CCC(N)C(=O)O` (stereo not shown) [Buthionine sulfoximine (BSO), Buthionine sulfoximine], the “changes in GSH” value ([1]; independently from viability, less profound in serum-free media) is reported as “strong decrease in GSH”.

In the case of `CN(C)C(=N)N=C(N)N` [Metformin], the “RNA Pol II levels” value ([5]; highest concentration tested, Advanced DMEM/F12) is reported as “slight decrease” and the “elevation of intracellular drug response markers” value (HepG2 cells [6]; all seven markers) is reported as “did not result in elevated markers”.

With `Cc1c2oc3c(C)ccc(C(=O)N[C@@H]4C(=O)N[C@H](C(C)C)C(=O)N5CCC[C@H]5C(=O)N(C)CC(=O)N(C)[C@@H](C(C)C)C(=O)O[C@@H]4C)c3nc-2c(C(=O)N[C@@H]2C(=O)N[C@H](C(C)C)C(=O)N3CCC[C@H]3C(=O)N(C)CC(=O)N(C)[C@@H](C(C)C)C(=O)O[C@@H]2C)c(N)c1=O` [actinomycin D, Actinomycin D] (I: T[dV]P[Sar][NMeV] / II: T[dV]P[Sar][NMeV]; ester I:1-I:C, II:1-II:C; linker I:N-II:N via Actinocin(9to1)) the “RNA Pol II levels” value [5, 9] was “significant decrease”, the “fold change (response, Figure 7C)” value ([4]; Advanced DMEM/F12) was 11.3 and the “fold change (response, Figure 7C)” value ([4]; TCM) was 6.6. The “fold change (response, Figure 7C)” value ([4]; standard medium) was 3.1 and the EIF4B levels (p-serin 422 of EIF4B) was “significant decrease”.

For `C1CCC(C(CC2CCCCN2)C2CCCCC2)CC1` (stereo not shown) [Perhexiline], the “mitochondrial toxicity call (IC50Glc/IC50Gal fold change vs two-fold threshold)” value (HepG2 cells [7]) was “identified as a potential mitochondrial toxin”, the “changes in GSH” value [1, 8] was “viability dependent changes in GSH” and the “concentrations at which cell death occurred” value (HepG2 cells [6]; multiple markers drastically reduced or below detection limit) was no less than 16.7 µM. The PARP level ([4]; Advanced DMEM/F12 only) was “significant increase in PARP”.

`CO/C1=C\C(C)=C\[C@@H](C)[C@@H](O)[C@@H](C)C/C(C)=C/C=C/[C@H](OC)[C@@H]([C@@H](C)[C@@H](O)[C@H](C)[C@@]2(O)C[C@@H](O)[C@H](C)[C@@H](C(C)C)O2)OC1=O` [bafilomycin, Bafilomycin A1] was tested, and the LC3B levels (LC3B (autophagy marker); similar response in all culture conditions) was “strong increase in LC3B levels”.

For `CCCCc1oc2ccccc2c1C(=O)c1cc(I)c(OCCN(CC)CC)c(I)c1` [Amiodarone], the “RNA Pol II levels” value [5, 9] was “decrease”, the LC3B levels (LC3B (autophagy marker); second highest concentration, similar in all conditions) was “elevated LC3B levels” and the HSP70 levels [2, 10] was “decrease”. The PARP levels [4, 10] was “elevated PARP levels” and the EIF4B levels (p-serin 422 of EIF4B) was “decrease”.

`O=C(O)Cc1ccccc1Nc1c(Cl)cccc1Cl` [Diclofenac] was tested, and the “changes in GSH” value [1, 8] was “viability dependent changes in GSH”.

With `CC(=O)O[C@H]1C(=O)[C@@]2(C)[C@H]([C@H](OC(=O)c3ccccc3)[C@]3(O)C[C@H](OC(=O)[C@H](O)[C@@H](NC(=O)c4ccccc4)c4ccccc4)C(C)=C1C3(C)C)[C@]1(OC(C)=O)CO[C@@H]1C[C@@H]2O` [Paclitaxel] the “changes in GSH” value ([1]; at high concentrations, increase significantly lower in both serum-free media) was “increase in GSH”.

In the case of `C/C=C(/C)C(=O)O[C@H]1C(C)=C2[C@H]([C@@H]1OC(=O)CCCCCCC)[C@@](C)(OC(C)=O)C[C@H](OC(=O)CCC)[C@@]1(O)[C@H]2OC(=O)[C@@]1(C)O` [Thapsigargin], the “changes in GSH” value ([1]; at low concentrations, increase significantly lower in both serum-free media) is reported as “increase in GSH”.

— publication PMC11621109, “Increasing sustainability and reproducibility of in vitro toxicology applications: serum-free cultivation of HepG2 cells” (Frontiers in Toxicology, 2024)
